From patent US4900815A, “Sulfated polysaccharide DS4152” (Daiichi Seiyaku Co., Ltd., priority 1986, dated 1990)
Several values for one entry are separate records, joined by “and”; a condition that tells them apart may be missing. Equal entries are not always repeated. Structures can show the parent of a compound that is named as a salt.

Experiments:
[1] = test system: angiogenesis of the chick CAM; experiment: CAM angiogenesis inhibition, various steroids alone or with DS4152; format: in vivo; settings: for degree of increase: ID50 alone vs. in the presence of 10 ng of DS4152; for ID50, used in combination with DS4152: in the presence of 10 ng of DS4152; for ID50, alone: steroid alone
[2] = test system: vascularization in chorioallantoic membrane (CAM) of chick embryo, rabbit cornea and hamster cheek pouches; settings: cited from earlier work
CAM angiogenesis [3] = experiment: CAM Angiogenesis Inhibition Test (Direct Method), antiestrogens with or without DS4152; format: in vivo, chick
Procedure: (§1) Using chick embryos, a test was carried out in accordance with the following method, which was a partial modification of the Taylor-Folkman'smethod Nature, 297, 307 (1982)].
(§2) Either DS4152 or heparin dissolved in physiological saline was added to the CAM of each 4-5 day old fertilized chicken 1 egg (species: NORIN CROSS) and then the eggs were incubated at 37° C.
(§3) Two days after the addition of the agent, the degree of the CAM vascularization was compared with that of a control to which physiological saline was only added. The 50% vascularization inhibition dose (ID50) was calculated by the probit method.
(§4) A test was conducted in the same manner as in Example 2. Antiestrogens were separately dissolved or suspended in physiological saline and were added either alone or together with DS4152. The eggs with the agents were incubated at 37° C. Two days after the addition of the agents, the degrees of development of CAM vessels were individually compared with that of a control to which physiological saline was only added.

CAM vascularization [4] = experiment: Antiangiogenic Effects (Ex Vivo) of steroids with or without DS4152; design: species or system chick (blood from male ICR mice)
Procedure: (§5) Male ICR mice were orally administered with a solution of DS4152 dissolved in physiological saline. A saline suspension of a steroid was administered orally or intramuscularly, either in combination with DS4152 or alone. Blood samples collected after 6 hours were prevented from coagulation with a 0.313% aqueous solution of sodium citrate. Each blood sample was added to the 5 day CAM in the same manner as in the direct method. The inhibitory effects were judged after two days. Results were expressed by inhibition ratios (%) of CAM vascularization of each group to that of control group with a blood sample collected from the mice with saline. (Table 11).

breast cancer = settings: Oncologia, 10, 72 (1984); cited from earlier work
CAM angiogenesis [5] = experiment: CAM Angiogenesis Inhibition Test (Direct Method), DS4152 and heparins with tamoxifen citrate; format: in vivo, chick; settings: for 50% vascularization inhibition dose: with tamoxifen citrate 1 μg
Procedure: as §1, §2, §3, §4

CAM vascularization [6] = experiment: Antiangiogenic Effects (Ex Vivo) of tamoxifen with or without DS4152; design: species or system chick (blood from mice); settings: for Inhibition rate of angiogenesis: tamoxifen citrate 100 mg/kg s.c.
Procedure: as §5
In the same manner as in Example 8, antiangiogenic effects of tamoxifen were examined with or without DS4152.

[7] = test system: mouse mammary carcinoma MM46; experiment: Antitumor Test, MM46, tamoxifen citrate with DS4152; format: in vivo, mouse (male C3H/He)
Procedure: (§6) C3H/He male mice (5 weeks old) were each inoculated subcutaneously with 4×10^6 cells of mouse mammary carcinoma MM46. Mice were randomized after measuring the diameters of the resultant tumors on the 7th day. In addition, male ICR mice (5 weeks old) were each inoculated subcutaneously with 1×10^6 cells of Sarcoma 180 (S180). On the 3rd days, the mice were randomized. A saline suspension of tamoxifen citrate was administered once a day for 4 days to the MM46-bearing mice on the 7th day after inoculation and to the S180-bearing mice on the 3rd day after inoculation. DS4152 and heparins were individually dissolved in physiological saline and administered either orally or subcutaneously once a day for 4 days at a dose of 30 mg/kg/day or 300 mg/kg/day. On the 5th day after the beginning of the administration, the animals were sacrificed. The tumor weights were compared with those of the control mice administered only with physiological saline (Table 15).

Sarcoma 180 (S180) = experiment: Antitumor Test, S180, tamoxifen citrate with DS4152 or heparins; format: in vivo, mouse (male ICR)
Procedure: as §6

[8] = test system: CAM vascularization of chick embryos; experiment: CAM Angiogenesis Inhibition Test (Direct Method); format: in vivo, chick (NORIN CROSS); settings: even at 100 μg
Procedure: as §1, §2, §3

[9] = antiestrogen 1 μg, DS4152 0.01 μg
[10] = antiestrogen 10 μg, DS4152 0 μg
[11] = antiestrogen 10 μg, DS4152 0.01 μg
[12] = tamoxifen citrate 100 mg/kg s.c. alone
[13] = 300 mg/kg oral + tamoxifen citrate 100 mg/kg s.c.
[14] = 300 mg/kg oral + tamoxifen citrate 100 mg/kg s.c., p < 0.05

With C[C@@]12CCC[C@H]1[C@@H]1CC[C@H]3CCCC[C@]3(C)[C@H]1CC2 [5α-Androstane] the degree of increase [1] was 8.0 times, the “ID50, used in combination with DS4152” value [1] was 0.29 μg/embryo and the “ID50, alone” value [1] was 2.32 μg/embryo.
With C[C@H]1C[C@@H]2[C@H]([C@@H](O)C[C@@]3(C)[C@H]2CC[C@]3(O)C(=O)CO)[C@@]2(C)C=CC(=O)C=C12 [6α-Methylprednisolone] the degree of increase [1] was 38.3 times, the “ID50, used in combination with DS4152” value [1] was 0.03 μg/embryo and the “ID50, alone” value [1] was 1.15 μg/embryo. The “suppression of experimentally induced vascularization” value (shortened to “suppression”) [2] was “effective”.
With C[C@]12CC[C@@H]3c4ccc(O)cc4CC[C@H]3[C@@H]1CC[C@@H]2O [17β-Estradiol] the degree of increase [1] was 7.0 times, the “ID50, used in combination with DS4152” value [1] was 0.28 μg/embryo and the “ID50, alone” value [1] was 1.96 μg/embryo.
With C[C@H]1C[C@H]2[C@@H]3CCC4=CC(=O)C=C[C@]4(C)[C@@]3(F)[C@@H](O)C[C@]2(C)[C@@]1(O)C(=O)CO [Betamethasone] the degree of increase [1] was 16.0 times, the “ID50, used in combination with DS4152” value [1] was 0.05 μg/embryo and the “ID50, alone” value [1] was 0.80 μg/embryo.
In the case of CCN(CC)CCOc1ccc(C(=C(Cl)c2ccccc2)c2ccccc2)cc1 [Clomiphene citrate], the “percent inhibition of CAM vascularization” value (“percent inhibition” for short) (CAM angiogenesis [3]; antiestrogen 1 μg, DS4152 0 μg) is reported as -3.9%, the “percent inhibition” value (CAM angiogenesis [3]; [9]) is reported as 32.6% and the “percent inhibition” value (CAM angiogenesis [3]; [10]) is reported as -11.4%. The “percent inhibition” value (CAM angiogenesis [3]; [11]) was 42.0%.
With C[C@]12C[C@H]3S[C@H]3C[C@@H]1CC[C@@H]1[C@@H]2CC[C@]2(C)[C@@H](O)CC[C@@H]12 [Epithiostanol] the “Inhibition rate of angiogenesis” value (CAM vascularization [4]; steroid i.m. 5 mg/kg, DS4152 0) was 4.0%, the “Inhibition rate of angiogenesis” value (CAM vascularization [4]; steroid i.m. 5 mg/kg, DS4152 30 mg/kg p.o.) was 5.2% and the “Inhibition rate of angiogenesis” value (CAM vascularization [4]; steroid i.m. 50 mg/kg, DS4152 0) was 13.4%. For the same compound, the “Inhibition rate of angiogenesis” value (CAM vascularization [4]; steroid i.m. 50 mg/kg, DS4152 30 mg/kg p.o.) was 23.4%, the “Inhibition rate of angiogenesis” value (CAM vascularization [4]; steroid i.m. 100 mg/kg, DS4152 0) was 24.2% and the “Inhibition rate of angiogenesis” value (CAM vascularization [4]; steroid i.m. 100 mg/kg, DS4152 30 mg/kg p.o.) was 37.6%.
With C[C@]1(O)CC[C@H]2[C@@H]3CCC4=CC(=O)CC[C@]4(C)[C@@]3(F)[C@@H](O)C[C@@]21C [Fluoxymesterone] the degree of increase [1] was 10.3 times, the “ID50, used in combination with DS4152” value [1] was 0.12 μg/embryo and the “ID50, alone” value [1] was 1.24 μg/embryo. For the same compound, the “effectivity (anti-breast cancer)” value (breast cancer) was 20-30%.
For C[C@]12CCC(=O)C=C1CC[C@@H]1[C@@H]2[C@@H](O)C[C@@]2(C)[C@H]1CC[C@]2(O)C(=O)CO [Hydrocortisone], the degree of increase [1] was 6.9 times, the “ID50, used in combination with DS4152” value [1] was 0.16 μg/embryo and the “ID50, alone” value [1] was 1.10 μg/embryo.
With CC(=O)O[C@]1(C(C)=O)CC[C@H]2[C@@H]3C[C@H](C)C4=CC(=O)CC[C@]4(C)[C@H]3CC[C@@]21C [Medroxyprogesterone acetate] the degree of increase [1] was 2.7 times, the “ID50, used in combination with DS4152” value [1] was 0.42 μg/embryo and the “ID50, alone” value [1] was 1.12 μg/embryo.
For COc1ccc2c(c1)CCC(c1ccccc1)=C2c1ccc(OCCN2CCCC2)cc1 [Nafoxidine chloride], the “percent inhibition” value (CAM angiogenesis [3]; antiestrogen 1 μg, DS4152 0 μg) was -4.3%, the “percent inhibition” value (CAM angiogenesis [3]; [9]) was 23.1% and the “percent inhibition” value (CAM angiogenesis [3]; [10]) was -3.2%. For the same compound, the “percent inhibition” value (CAM angiogenesis [3]; [11]) was 31.6%.
With C[C@]12C=CC(=O)C=C1CC[C@@H]1[C@@H]2[C@@H](O)C[C@@]2(C)[C@H]1CC[C@]2(O)C(=O)CO [Prednisolone] the degree of increase [1] was 16.3 times, the “ID50, used in combination with DS4152” value [1] was 0.08 μg/embryo and the “ID50, alone” value [1] was 1.30 μg/embryo. For the same compound, the “suppression” value [2] was “effective”.
In the case of CC(=O)[C@H]1CC[C@H]2[C@@H]3CCC4=CC(=O)CC[C@]4(C)[C@H]3CC[C@]12C [Progesterone], the degree of increase [1] is reported as 2.1 times, the “ID50, used in combination with DS4152” value [1] is reported as 0.49 μg/embryo and the “ID50, alone” value [1] is reported as 1.02 μg/embryo.
For CC/C(=C(\c1ccccc1)c1ccc(OCCN(C)C)cc1)c1ccccc1 [Tamoxifen citrate], the “percent inhibition” value (CAM angiogenesis [3]; antiestrogen 1 μg, DS4152 0 μg) was -0.4%, the “percent inhibition” value (CAM angiogenesis [3]; [9]) was 56.2% and the “percent inhibition” value (CAM angiogenesis [3]; [10]) was 2.9%. The “percent inhibition” value (CAM angiogenesis [3]; [11]) was 70.5%, the effect on vascularization (CAM angiogenesis [5]; 1 μg, alone) was “too little to affect the vascularization” and the “Inhibition rate of angiogenesis” value (CAM vascularization [6]; DS4152 0) was -6.1% and -11.0%. The “Inhibition rate of angiogenesis” value (CAM vascularization [6]; DS4152 30 mg/kg oral) was 40.0%, the “Inhibition rate of angiogenesis” value (CAM vascularization [6]; DS4152 30 mg/kg subcutaneous) was 61.2% and the “influence on vascularization of CAM” value (CAM vascularization [6]; tamoxifen citrate only) was “no influence”. For the same compound, the “inhibition of CAM vascularization” value (CAM vascularization [6]; tamoxifen with subcutaneous or oral DS4152 (30 mg/kg)) was “inhibited markedly the CAM vascularization”, the “effect on growth of mammary carcinoma MM46” value ([7]; single administration (alone)) was “inhibited” and the T/C [7, 12] was 6.6%. The “Tumor weight, mean ± S.D.” value ([7]; tamoxifen citrate 100 mg/kg s.c. alone, p < 0.05) was 273 ± 27 mg, the “effect on growth of sarcoma S180” value (Sarcoma 180 (S180); administered alone) was “did not affect the growth” and the T/C (Sarcoma 180 (S180); [12]) was 97%. The “Tumor weight, mean ± S.D.” value (Sarcoma 180 (S180); [12]) was 298 ± 31 mg.
In the case of C[C@]12CC[C@@H](O)C[C@H]1CC[C@@H]1[C@@H]2CC[C@@]2(C)[C@H]1CC[C@]2(O)C(=O)CO [Tetrahydro S], the degree of increase [1] is reported as 100.0 times, the “ID50, used in combination with DS4152” value [1] is reported as 0.01 μg/embryo and the “ID50, alone” value [1] is reported as 1.00 μg/embryo. The “Inhibition rate of angiogenesis” value (CAM vascularization [4]; steroid p.o. 1 mg/kg, DS4152 0) was -2.6%, the “Inhibition rate of angiogenesis” value (CAM vascularization [4]; steroid p.o. 1 mg/kg, DS4152 30 mg/kg p.o.) was 71.7% and the “Inhibition rate of angiogenesis” value (CAM vascularization [4]; steroid p.o. 5 mg/kg, DS4152 0) was -17.3%. For the same compound, the “Inhibition rate of angiogenesis” value (CAM vascularization [4]; steroid p.o. 5 mg/kg, DS4152 30 mg/kg p.o.) was 80.7%.
For C[C@@H]1C[C@H]2[C@@H]3CCC4=CC(=O)C=C[C@]4(C)[C@@]3(F)[C@@H](O)C[C@]2(C)[C@@]1(O)C(=O)CO [dexamethasone], the “suppression” value [2] is given as “effective”.
For CCC(=O)O[C@H]1CC[C@H]2[C@@H]3CCC4=CC(=O)CC[C@]4(C)[C@H]3CC[C@]12C [testosterone propionate], the “effectivity (anti-breast cancer)” value (breast cancer) is given as 20-30%.
For heparin, the “effect on CAM vascularization” value [8] was “no effect”, the “50% vascularization inhibition dose” value (CAM angiogenesis [5]) was 3.43 µg and the T/C (Sarcoma 180 (S180); [13]) was 66%. The “Tumor weight, mean ± S.D.” value (Sarcoma 180 (S180); [14]) was 203 ± 13 mg.
With low molecular weight heparin the “50% vascularization inhibition dose” value (CAM angiogenesis [5]) was 1.37 µg, the T/C (Sarcoma 180 (S180); [13]) was 66% and the “Tumor weight, mean ± S.D.” value (Sarcoma 180 (S180); [14]) was 202 ± 22 mg.
